# Measured values published in US7084268B1, “Carbapenem compound crystals and interjection preparations” (Eisai Co., Ltd., priority 1999, dated 2006).
# Several values for one entry are separate records, joined by “and”; a condition that tells them apart may be missing. Equal values may be shown once. Where a name gives a salt, the structure may show the parent alone.
# What was measured:
# Format in all cases: physicochemical
# [1] = Solubility in 62.5% (v/v) aqueous organic solvents, quantification in HPLC; conditions: for solubility at 30 min: aqueous organic solvent, 20 °C, aqueous with cosolvent or surfactant or cyclodextrin, thermodynamic from solid
# Experimental: The solubility of (+)-(1R,5S,6S)-6-[(R)-1-hydroxyethyl]-1-methyl-2-[(2S,4S)-2-[(3R)-pyrrolidine-3-yl-(R)-hydroxymethyl]pyrrolidine-4-yl]thio-1-carbapen-2-em-3-carboxylic acid monohydrochloride monohydrate and trihydrate in various aqueous organic solvents at a concentration of 62.5% (v/v) in water at 20° C. was determined by HPLC in the following manner.
# [2] = Effect of degasification of the air in a vial and/or replacement by nitrogen (storage of powdery charged preparations); conditions: for HPLC impurity, mean / content of residual carbapenem compound, mean: N=3
# Experimental: As the monohydrate crystals, the powdery charged preparation of the novel carbapenem hydrochloride crystals (25 mg/vial) obtained in the method in Example 2-3 (replacement by nitrogen), the powdery charged preparation (25 mg/vial) subjected to replacement by oxygen in place of replacement by nitrogen in Example 2-3, and the powdery charged preparation (25 mg/vial) not subjected to replacement in Example 2-2 were stored at 60° C. for 5 days (N=3) and then measured for their color difference (ΔE), water content, powdery x-ray diffraction pattern, content of residual carbapenem and HPLC impurities. As the trihydrate crystals, the powdery charged preparation of the novel carbapenem hydrochloride crystals (25 mg/vial) obtained by the method (replacement by nitrogen) in Example 1-9 and the powdery charged preparation (25 mg/vial) not subjected to replacement in Example 1-8 were stored at 40° C. for 1 month and then measured for their color difference (ΔE), water content and content of residual carbapenem. The color difference was evaluated by a color difference meter (ZE-200, Nippondenso Co., Ltd.); the water content by a Karl-Fisher moisture meter (CA-05, Mitsubishi Kagaku Kogyo); the powdery X-ray diffraction under the method and conditions in Example 1-1 or 2-1; and the content of residual carbapenem and HPLC impurities by high performance liquid chromatography (Shimadzu Corporation). The color difference (ΔE) is a parameter indicative of a change in the color of the outward appearance of crystals, and its higher value indicates a greater coloration change than at an initial stage (just after production).
# [3] = Storage of crystals in bottles without caps at various relative humidity, with or without oxygen absorbent; conditions: for water content (hygroscopicity): 25° C., 2 weeks, listed as monohydrate crystals, monohydrochloride monohydrate
# Experimental: The novel carbapenem hydrochloride crystals were weighed in 25 mL wide-mouthed glass bottles (30 mg/bottle), and in the bottles without caps, the monohydrate was stored for 1 week at 40° C. at a relative humidity of 0%, 19.2%, 53% and 75%, and the trihydrate was stored for 2 weeks at 25° C. at a relative humidity of 11%, 33%, 51%, 75% and 93%. Then, the crystals were measured for their color difference (ΔE), water content, powdery X-ray diffraction pattern, and content of residual carbapenem. The monohydrate was also examined in the presence or absence of an oxygen absorbent (trade name: Ageless, produced by Mitsubishi Gas Chemical Co., Ltd.) during storage at each relative humidity. The oxygen absorbent makes oxygen-free conditions under which the preparation is placed.
# [4] = as above; conditions: 25° C., 2 weeks, listed as monohydrate crystals, monohydrochloride monohydrate
# [5] = 25 mg/vial, control (air), no replacement, stored 60° C. for 5 days
# [6] = 25 mg/vial, control (air), no replacement, stored 60° C. for 5 days, monohydrochloride monohydrate
# [7] = 25 mg/vial, gas for replacement nitrogen, stored 60° C. for 5 days
# [8] = 25 mg/vial, gas for replacement nitrogen, stored 60° C. for 5 days, monohydrochloride monohydrate
# [9] = 25 mg/vial, gas for replacement oxygen, stored 60° C. for 5 days
# [10] = 25 mg/vial, gas for replacement oxygen, stored 60° C. for 5 days, monohydrochloride monohydrate
# [11] = monohydrate powdery charged preparation, initial stage
# [12] = 40° C., 1 week, relative humidity 0%, oxygen absorbent absence
# [13] = 40° C., 1 week, relative humidity 0%, oxygen absorbent presence
# [14] = 40° C., 1 week, relative humidity 19.2%, oxygen absorbent absence
# [15] = 40° C., 1 week, relative humidity 19.2%, oxygen absorbent presence
# [16] = 40° C., 1 week, relative humidity 53%, oxygen absorbent absence
# [17] = 40° C., 1 week, relative humidity 53%, oxygen absorbent presence
# [18] = 40° C., 1 week, relative humidity 75%, oxygen absorbent absence
# [19] = 40° C., 1 week, relative humidity 75%, oxygen absorbent presence
# [20] = monohydrate crystals, initial stage
structure (smiles),measurement,setting,value
"C[C@@H](O)[C@H]1C(=O)N2C(C(=O)O)=C(S[C@@H]3CN[C@H]([C@H](O)[C@@H]4CCNC4)C3)[C@H](C)[C@H]12 [monohydrate, (+)-(1R,5S,6S)-6-[(R)-1-Hydroxyethyl]-1-methyl-2-[(2S,4S)-2-[(3R)-pyrrolidine-3-yl-(R)-hydroxymethyl]pyrrolidine-4-yl]thio-1-carbapen-2-em-3-carboxylic acid monohydrochloride monohydrate]",solubility,"[1]; 62.5% (v/v) diethylene glycol monoethyl ether in water, 20° C., 30 minutes, monohydrochloride monohydrate",6560 µg/mL
same,solubility at 30 min,[1]; 62.5% (v/v) 1-acetoxy-2-methyl ethane in water,4180 µg/mL
same,solubility at 30 min,[1]; 62.5% (v/v) 1-ethoxy-2-propanol in water,5060 µg/mL
same,solubility at 30 min,[1]; 62.5% (v/v) 1-methoxy-2-propanol in water,4120 µg/mL
same,solubility at 30 min,[1]; 62.5% (v/v) 2-butoxyethanol in water,13300 µg/mL
same,solubility at 30 min,[1]; 62.5% (v/v) 2-ethoxyethanol in water,6740 µg/mL
same,solubility at 30 min,[1]; 62.5% (v/v) 2-isopropoxyethanol in water,6030 µg/mL
same,solubility at 30 min,[1]; 62.5% (v/v) 2-methoxyethanol in water,5370 µg/mL
same,solubility at 30 min,[1]; 62.5% (v/v) 3-methoxy-3-methyl-1-butanol in water,5930 µg/mL
same,solubility at 30 min,[1]; 62.5% (v/v) 3-methoxybutanol in water,4390 µg/mL
same,solubility at 30 min,[1]; 62.5% (v/v) IPA (isopropyl alcohol) in water,6310 µg/mL
same,solubility at 30 min,[1]; 62.5% (v/v) acetonitrile in water,15800 µg/mL
same,solubility at 30 min,[1]; 62.5% (v/v) diethylene glycol monomethyl ether in water,3930 µg/mL
same,solubility at 30 min,[1]; 62.5% (v/v) dimethyl acetamide in water,4060 µg/mL
same,solubility at 30 min,[1]; 62.5% (v/v) dimethyl ether in water,1930 µg/mL
same,solubility at 30 min,[1]; 62.5% (v/v) dimethyl formamide in water,5030 µg/mL
same,solubility at 30 min,[1]; 62.5% (v/v) dimethyl sulfoxide in water,7500 µg/mL
same,solubility at 30 min,[1]; 62.5% (v/v) ethanol in water,6600 µg/mL
same,solubility at 30 min,[1]; 62.5% (v/v) methanol in water,10200 µg/mL
same,solubility at 30 min,[1]; 62.5% (v/v) n-propanol in water,12300 µg/mL
same,solubility at 30 min,[1]; 62.5% (v/v) t-butanol in water,8650 µg/mL
same,solubility at 30 min,[1]; 62.5% (v/v) tetrahydrofuran in water,7220 µg/mL
same,solubility at 30 min,[1]; 62.5% (v/v) triethylene glycol monomethyl ether in water,2860 µg/mL
same,powdery X-ray diffraction pattern,[2]; [5],no change
same,"HPLC impurity, mean",[2]; [5],0.63%
same,"content of residual carbapenem compound, mean",[2]; [5],98.40%
same,HPLC impurity,[2]; [6],0.62% and 0.64%
same,color difference (ΔE),[2]; [6],10.48 and 11.21 and 10.41
same,content of residual carbapenem compound,[2]; [6],98.6% and 98.1%
same,water content,[2]; [6],5.87% and 5.93%
same,powdery X-ray diffraction pattern,[2]; [7],no change
same,"HPLC impurity, mean",[2]; [7],0.63%
same,"content of residual carbapenem compound, mean",[2]; [7],98.40%
same,HPLC impurity,[2]; [8],0.63% and 0.64%
same,color difference (ΔE),[2]; [8],4.23 and 4.57 and 5.23
same,water content,[2]; [8],5.80% and 5.78% and 5.77%
same,powdery X-ray diffraction pattern,[2]; [9],no change
same,"HPLC impurity, mean",[2]; [9],0.64%
same,"content of residual carbapenem compound, mean",[2]; [9],97.80%
same,HPLC impurity,[2]; [10],0.63% and 0.64%
same,color difference (ΔE),[2]; [10],12.7 and 12.14 and 11.46
same,content of residual carbapenem compound,[2]; [10],97.5% and 98.1% and 97.8%
same,water content,[2]; [10],5.78% and 5.77% and 5.75%
same,HPLC impurity,[2]; [11],1.03%
same,water content,[2]; [11],5.99%
same,water content (hygroscopicity),[3]; relative humidity 33%,5.6%
same,water content (hygroscopicity),[3]; relative humidity 51%,5.9%
same,color difference (ΔE),[3]; [12],1.87
same,content of residual carbapenem compound,[3]; [12],101.1%
same,powdery X-ray diffraction pattern,[3]; [12],no change
same,water content,[3]; [12],5.08%
same,color difference (ΔE),[3]; [13],2.95
same,content of residual carbapenem compound,[3]; [13],100.3%
same,powdery X-ray diffraction pattern,[3]; [13],no change
same,water content,[3]; [13],5.31%
same,color difference (ΔE),[3]; [14],5.01
same,content of residual carbapenem compound,[3]; [14],99.9%
same,powdery X-ray diffraction pattern,[3]; [14],no change
same,water content,[3]; [14],6.18%
same,color difference (ΔE),[3]; [15],3.97
same,content of residual carbapenem compound,[3]; [15],100.5%
same,powdery X-ray diffraction pattern,[3]; [15],no change
same,water content,[3]; [15],5.72%
same,color difference (ΔE),[3]; [16],6.28
same,content of residual carbapenem compound,[3]; [16],100.6%
same,powdery X-ray diffraction pattern,[3]; [16],no change
same,water content,[3]; [16],6.17%
same,color difference (ΔE),[3]; [17],5.85
same,content of residual carbapenem compound,[3]; [17],102.0%
same,powdery X-ray diffraction pattern,[3]; [17],no change
same,water content,[3]; [17],6.29%
same,color difference (ΔE),[3]; [18],35.98
same,content of residual carbapenem compound,[3]; [18],99.8%
same,powdery X-ray diffraction pattern,[3]; [18],no change
same,water content,[3]; [18],6.60%
same,color difference (ΔE),[3]; [19],4.56
same,content of residual carbapenem compound,[3]; [19],100.8%
same,powdery X-ray diffraction pattern,[3]; [19],no change
same,water content,[3]; [19],6.43%
same,HPLC impurity,[3]; [20],0.93%
same,water content,[3]; [20],5.49%
same,water content (hygroscopicity),[4]; relative humidity 11%,5.0%
same,water content (hygroscopicity),[4]; relative humidity 75%,6.2%
same,water content (hygroscopicity),[4]; relative humidity 93%,8.4%
